# System: MV-4-11 cells
# Assay: Gene expression microarray analysis (Affymetrix PrimeView) and GSEA
# Format: cell-based, human
# Parameters: RFU PODN (11730768_x_at) / Fold change /veh PODN (11730768_x_at) / RFU LINC00158 (11744669_a_at) / Fold change /veh LINC00158 (11744669_a_at) / RFU DUSP10 (11751237_a_at) / Fold change /veh DUSP10 (11751237_a_at) / RFU ID3 (11757404_x_at) / Fold change /veh ID3 (11757404_x_at) / RFU PLEKHG5 (11737974_s_at) / Fold change /veh PLEKHG5 (11737974_s_at) / RFU LRRC4B (11730491_at) / Fold change /veh LRRC4B (11730491_at) / RFU GIMAP4 (11747438_a_at) / Fold change /veh GIMAP4 (11747438_a_at) / RFU KRT8 (11758183_x_at) / Fold change /veh KRT8 (11758183_x_at) / RFU CNN1 (11734310_a_at) / Fold change /veh CNN1 (11734310_a_at) / RFU VPS37D (11726825_at) / Fold change /veh VPS37D (11726825_at) / RFU C10orf10 (11716522_x_at) / Fold change /veh C10orf10 (11716522_x_at) / RFU KIR2DL2 /// KIR2DL4 /// KIR2DL5A /// KIR2DL5B /// KIR2DS1 /// KIR2DS2 /// KIR2DS3 /// KIR2DS4 /// KIR3DL3 /// KIR3DL3 /// KIR3DS1 (11738374_at) / Fold change /veh KIR2DL2 /// KIR2DL4 /// KIR2DL5A /// KIR2DL5B /// KIR2DS1 /// KIR2DS2 /// KIR2DS3 /// KIR2DS4 /// KIR3DL3 /// KIR3DL3 /// KIR3DS1 (11738374_at) / RFU C1QL1 (11718748_at) / Fold change /veh C1QL1 (11718748_at) / RFU TMPRSS4 (11747572_a_at) / Fold change /veh TMPRSS4 (11747572_a_at) / RFU HAMP (11756126_x_at) / Fold change /veh HAMP (11756126_x_at) / RFU RNFT2 (11725882_a_at) / Fold change /veh RNFT2 (11725882_a_at) / RFU NR4A2 (11747474_a_at) / Fold change /veh NR4A2 (11747474_a_at) / RFU ABCC12 (11746883_a_at) / Fold change /veh ABCC12 (11746883_a_at) / RFU TMEM136 (11760407_x_at) / Fold change /veh TMEM136 (11760407_x_at) / RFU CLDN22 /// WWC2 (11732394_at) / Fold change /veh CLDN22 /// WWC2 (11732394_at) / RFU HLA-DPB1 (11760878_x_at) / Fold change /veh HLA-DPB1 (11760878_x_at) / RFU SPINT1 (11716480_a_at) / Fold change /veh SPINT1 (11716480_a_at) / RFU GAP43 (11754022_s_at) / Fold change /veh GAP43 (11754022_s_at) / RFU A4GNT (11735810_at) / Fold change /veh A4GNT (11735810_at) / RFU PRB3 (11715151_x_at) / Fold change /veh PRB3 (11715151_x_at) / RFU TUBB4B (11761932_at) / Fold change /veh TUBB4B (11761932_at) / RFU CAPN14 (11732068_a_at) / Fold change /veh CAPN14 (11732068_a_at) / RFU TMCC2 (11721928_a_at) / Fold change /veh TMCC2 (11721928_a_at) / RFU IRGQ (11745062_a_at) / Fold change /veh IRGQ (11745062_a_at) / RFU FAM174B (11720279_a_at) / Fold change /veh FAM174B (11720279_a_at) / RFU TMPRSS4 (11748680_a_at) / Fold change /veh TMPRSS4 (11748680_a_at) / RFU FAM212B (11763350_a_at) / Fold change /veh FAM212B (11763350_a_at) / RFU PLEKHG5 (11743358_a_at) / Fold change /veh PLEKHG5 (11743358_a_at) / RFU ZSCAN30 (11745921_a_at) / Fold change /veh ZSCAN30 (11745921_a_at) / RFU CMKLR1 (11741424_a_at) / Fold change /veh CMKLR1 (11741424_a_at) / RFU LOC101060620 /// MAPK8IP1 (11723275_at) / Fold change /veh LOC101060620 /// MAPK8IP1 (11723275_at) / RFU SPTSSB (11747773_x_at) / Fold change /veh SPTSSB (11747773_x_at) / RFU PRSS12 (11739890_at) / Fold change /veh PRSS12 (11739890_at) / RFU BIN1 (11741810_x_at) / Fold change /veh BIN1 (11741810_x_at) / RFU WNT11 (11732464_a_at) / Fold change /veh WNT11 (11732464_a_at) / RFU C10orf10 (11716521_a_at) / Fold change /veh C10orf10 (11716521_a_at) / RFU C5orf56 (11738089_at) / Fold change /veh C5orf56 (11738089_at) / RFU CYB561 (11721691_x_at) / Fold change /veh CYB561 (11721691_x_at) / RFU ANKRD19P (11752326_a_at) / Fold change /veh ANKRD19P (11752326_a_at) / RFU OR2T12 /// OR2T33 /// OR2T8 (11738714_s_at) / Fold change /veh OR2T12 /// OR2T33 /// OR2T8 (11738714_s_at) / RFU VCAN (11748164_a_at) / Fold change /veh VCAN (11748164_a_at) / RFU JSRP1 (11732532_at) / Fold change /veh JSRP1 (11732532_at) / RFU KRTAP10-11 (11738290_x_at) / Fold change /veh KRTAP10-11 (11738290_x_at) / RFU MYO3A (11730013_a_at) / Fold change /veh MYO3A (11730013_a_at) / RFU EBF3 (11725865_a_at) / Fold change /veh EBF3 (11725865_a_at) / RFU CAMK2N1 (11719241_x_at) / Fold change /veh CAMK2N1 (11719241_x_at) / RFU C5orf56 (11738088_a_at) / Fold change /veh C5orf56 (11738088_a_at) / RFU OLFML3 (11715873_a_at) / Fold change /veh OLFML3 (11715873_a_at) / RFU LOC100653217 /// NTM (11731650_a_at) / Fold change /veh LOC100653217 /// NTM (11731650_a_at) / RFU MAPK11 (11762145_a_at) / Fold change /veh MAPK11 (11762145_a_at) / RFU FIZ1 (11724087_x_at) / Fold change /veh FIZ1 (11724087_x_at) / RFU OASL (11726364_x_at) / Fold change /veh OASL (11726364_x_at) / RFU SOX15 (11748057_x_at) / Fold change /veh SOX15 (11748057_x_at) / RFU CD79A (11719716_a_at) / Fold change /veh CD79A (11719716_a_at) / RFU HIST1H1D (11736915_at) / Fold change /veh HIST1H1D (11736915_at) / RFU CASKIN2 (11723855_a_at) / Fold change /veh CASKIN2 (11723855_a_at) / RFU LOC730098 (11760151_x_at) / Fold change /veh LOC730098 (11760151_x_at) / RFU OR4N2 (11742367_at) / Fold change /veh OR4N2 (11742367_at) / RFU PRRT2 (11749266_a_at) / Fold change /veh PRRT2 (11749266_a_at) / RFU SNX32 (11753110_a_at) / Fold change /veh SNX32 (11753110_a_at) / RFU CDHR5 (11726645_a_at) / Fold change /veh CDHR5 (11726645_a_at) / RFU RCAN1 (11760418_a_at) / Fold change /veh RCAN1 (11760418_a_at) / RFU FAM167A (11723789_a_at) / Fold change /veh FAM167A (11723789_a_at) / RFU FAM26E (11764081_at) / Fold change /veh FAM26E (11764081_at) / RFU ISYNA1 (11749810_s_at) / Fold change /veh ISYNA1 (11749810_s_at) / RFU ACY1 (11761880_at) / Fold change /veh ACY1 (11761880_at) / RFU 11764098_at / Fold change /veh 11764098_at / RFU SAMD14 (11745864_x_at) / Fold change /veh SAMD14 (11745864_x_at) / RFU NPB (11741838_a_at) / Fold change /veh NPB (11741838_a_at) / RFU TMPRSS6 (11731388_a_at) / Fold change /veh TMPRSS6 (11731388_a_at) / RFU KRTAP10-2 (11738614_at) / Fold change /veh KRTAP10-2 (11738614_at) / RFU ARHGAP8 /// PRR5-ARHGAP8 (11727945_x_at) / Fold change /veh ARHGAP8 /// PRR5-ARHGAP8 (11727945_x_at) / RFU KRTAP5-7 /// NADSYN1 (11734609_at) / Fold change /veh KRTAP5-7 /// NADSYN1 (11734609_at) / RFU RASL12 (11751679_a_at) / Fold change /veh RASL12 (11751679_a_at) / RFU CDKN2B (11736163_a_at) / Fold change /veh CDKN2B (11736163_a_at) / RFU PRF1 (11729649_at) / Fold change /veh PRF1 (11729649_at) / RFU, ZNF638 /// ZNF638-IT1 / Fold change vs veh, ZNF638 /// ZNF638-IT1 / RFU, PANK3 / Fold change vs veh, PANK3 / RFU, SH3YL1 / Fold change vs veh, SH3YL1 / RFU, ZEB2 / Fold change vs veh, ZEB2 / RFU, NRIP1 / Fold change vs veh, NRIP1 / RFU, PTTG1IP / Fold change vs veh, PTTG1IP / RFU, CAPN2 / Fold change vs veh, CAPN2 / RFU, MED14 / Fold change vs veh, MED14 / RFU, SNORA58 / Fold change vs veh, SNORA58 / RFU, C1orf63 / Fold change vs veh, C1orf63 / RFU, LRRFIP1 / Fold change vs veh, LRRFIP1 / RFU, NDUFAF7 / Fold change vs veh, NDUFAF7 / RFU, SLC12A2 / Fold change vs veh, SLC12A2 / RFU, IBTK / Fold change vs veh, IBTK / RFU, ESF1 / Fold change vs veh, ESF1 / Fold change vs veh, TMEM50B / RFU, TAOK1 / Fold change vs veh, TAOK1 / RFU, ACBD3 / Fold change vs veh, ACBD3 / RFU, TMA16 / Fold change vs veh, TMA16 / RFU, RWDD3 / Fold change vs veh, RWDD3 / RFU, BCAT1 / Fold change vs veh, BCAT1 / RFU, EDEM3 / Fold change vs veh, EDEM3 / RFU, TMEM33 / Fold change vs veh, TMEM33 / RFU, WDR75 / Fold change vs veh, WDR75 / RFU, AHCTF1 / Fold change vs veh, AHCTF1 / RFU, TFRC / Fold change vs veh, TFRC / RFU, ZDHHC17 / Fold change vs veh, ZDHHC17 / RFU, NOM1 / Fold change vs veh, NOM1 / RFU, ARL8B / Fold change vs veh, ARL8B / RFU, ZBTB11 / Fold change vs veh, ZBTB11 / RFU, TAMM41 / Fold change vs veh, TAMM41 / RFU, KIAA1704 /// LOC100996395 / Fold change vs veh, KIAA1704 /// LOC100996395 / RFU, ING1 / Fold change vs veh, ING1 / RFU, TRMT61B / Fold change vs veh, TRMT61B / RFU, FUBP3 / Fold change vs veh, FUBP3 / RFU, TP53 / Fold change vs veh, TP53 / RFU, TNKS2 / Fold change vs veh, TNKS2 / RFU, ZFP14 / Fold change vs veh, ZFP14 / RFU, ACTR2 / Fold change vs veh, ACTR2 / RFU, PPP3R1 / Fold change vs veh, PPP3R1 / RFU, PIK3R1 / Fold change vs veh, PIK3R1 / RFU, HNRNPA1 / Fold change vs veh, HNRNPA1 / RFU, RNF170 / Fold change vs veh, RNF170 / RFU, ZNF28 / Fold change vs veh, ZNF28 / RFU, RNGTT / Fold change vs veh, RNGTT / RFU, OGT / Fold change vs veh, OGT / RFU, BRD1 / Fold change vs veh, BRD1 / RFU, MARS / Fold change vs veh, MARS / RFU, ZNF655 / Fold change vs veh, ZNF655 / RFU, FAHD1 / Fold change vs veh, FAHD1 / RFU, BDP1 / Fold change vs veh, BDP1 / RFU, LRRCC1 / Fold change vs veh, LRRCC1 / RFU, ARID1A / Fold change vs veh, ARID1A / RFU, ZNF146 / Fold change vs veh, ZNF146 / RFU, ZNF330 / Fold change vs veh, ZNF330 / RFU, GPN3 / Fold change vs veh, GPN3 / RFU, C9orf123 / Fold change vs veh, C9orf123 / RFU, N4BP2L2 / Fold change vs veh, N4BP2L2 / RFU, ARFIP1 / Fold change vs veh, ARFIP1 / RFU, FAM179B / Fold change vs veh, FAM179B / RFU, BCL10 / Fold change vs veh, BCL10 / RFU, UHRF1BP1L / Fold change vs veh, UHRF1BP1L / RFU, BET1 / Fold change vs veh, BET1 / RFU, CNOT2 / Fold change vs veh, CNOT2 / RFU, ZNF268 / Fold change vs veh, ZNF268 / Fold change vs veh, ZNF507 / RFU, DGCR2 / Fold change vs veh, DGCR2 / RFU, WDSUB1 / Fold change vs veh, WDSUB1 / Fold change vs veh, HSP90B1 /// MIR3652 / RFU, ADSS / Fold change vs veh, ADSS / RFU, GK / Fold change vs veh, GK / RFU, ZNF148 / Fold change vs veh, ZNF148 / RFU, TAF9 / Fold change vs veh, TAF9 / RFU, SLC1A5 / Fold change vs veh, SLC1A5 / RFU, SLMO2 / Fold change vs veh, SLMO2 / RFU, ABCC4 / Fold change vs veh, ABCC4 / RFU, LOC101060439 /// RAP1B / Fold change vs veh, LOC101060439 /// RAP1B / RFU, RFX7 / Fold change vs veh, RFX7 / RFU, GTPBP10 / Fold change vs veh, GTPBP10 / RFU, CNEP1R1 / Fold change vs veh, CNEP1R1 / RFU, BIVM-ERCC5 /// ERCC5 / Fold change vs veh, BIVM-ERCC5 /// ERCC5 / RFU, ILF3 / Fold change vs veh, ILF3 / RFU 11762660_at / Fold change /veh 11762660_at / RFU VCAN (11757783_s_at) / Fold change /veh VCAN (11757783_s_at) / RFU DDX43 (11728927_at) / Fold change /veh DDX43 (11728927_at) / RFU KRT8 (11758188_x_at) / Fold change /veh KRT8 (11758188_x_at) / RFU NKD1 (11759106_at) / Fold change /veh NKD1 (11759106_at) / RFU SRD5A1 (11742802_a_at) / Fold change /veh SRD5A1 (11742802_a_at) / RFU TPSAB1 /// TPSB2 (11721975_s_at) / Fold change /veh TPSAB1 /// TPSB2 (11721975_s_at) / RFU GSTM3 (11746129_a_at) / Fold change /veh GSTM3 (11746129_a_at) / RFU IL23R (11737362_x_at) / Fold change /veh IL23R (11737362_x_at) / RFU TMEM51 (11727254_a_at) / Fold change /veh TMEM51 (11727254_a_at) / RFU PIWIL2 (11732686_x_at) / Fold change /veh PIWIL2 (11732686_x_at) / RFU ORM1 (11744905_x_at) / Fold change /veh ORM1 (11744905_x_at) / RFU CCDC152 (11743942_at) / Fold change /veh CCDC152 (11743942_at) / RFU ECM1 (11717891_a_at) / Fold change /veh ECM1 (11717891_a_at) / RFU IL23R (11748794_a_at) / Fold change /veh IL23R (11748794_a_at) / RFU TNFAIP8L3 (11732012_x_at) / Fold change /veh TNFAIP8L3 (11732012_x_at) / RFU MBOAT4 (11741988_at) / Fold change /veh MBOAT4 (11741988_at) / RFU 11764193_at / Fold change /veh 11764193_at / RFU TMEM53 (11763286_at) / Fold change /veh TMEM53 (11763286_at) / RFU MAGEB2 (11727129_at) / Fold change /veh MAGEB2 (11727129_at) / RFU TMEM200A (11744735_a_at) / Fold change /veh TMEM200A (11744735_a_at) / RFU CCDC152 (11751479_a_at) / Fold change /veh CCDC152 (11751479_a_at) / RFU FAM211A (11726209_a_at) / Fold change /veh FAM211A (11726209_a_at) / RFU RGS16 (11746705_a_at) / Fold change /veh RGS16 (11746705_a_at) / RFU VCAN (11755009_s_at) / Fold change /veh VCAN (11755009_s_at) / RFU RHOB (11743442_s_at) / Fold change /veh RHOB (11743442_s_at) / RFU RGS16 (11720943_a_at) / Fold change /veh RGS16 (11720943_a_at) / RFU RGS16 (11720944_at) / Fold change /veh RGS16 (11720944_at) / RFU, VPS4B / Fold change vs veh, VPS4B / RFU, CREB1 / Fold change vs veh, CREB1 / RFU, DNAJC13 / Fold change vs veh, DNAJC13 / RFU, GNAQ / Fold change vs veh, GNAQ / RFU, CDK5R1 / Fold change vs veh, CDK5R1 / RFU, ZRANB3 / Fold change vs veh, ZRANB3 / RFU, CUL4A / Fold change vs veh, CUL4A / RFU, CCNY / Fold change vs veh, CCNY / RFU, UFL1 / Fold change vs veh, UFL1 / RFU, COG3 / Fold change vs veh, COG3 / RFU, DIAPH2 / Fold change vs veh, DIAPH2 / RFU, SKA2 / Fold change vs veh, SKA2 / RFU, AFF3 / Fold change vs veh, AFF3 / RFU, LMF1 / Fold change vs veh, LMF1 / RFU, IPO11 / Fold change vs veh, IPO11 / RFU, DFFB / Fold change vs veh, DFFB / RFU, FOXP1 / Fold change vs veh, FOXP1 / RFU, CARD8 / Fold change vs veh, CARD8 / RFU, STRN3 / Fold change vs veh, STRN3 / RFU, ADK / Fold change vs veh, ADK / RFU, RASSF2 / Fold change vs veh, RASSF2 / RFU, WIPF1 / Fold change vs veh, WIPF1 / RFU, LARP1B / Fold change vs veh, LARP1B / RFU, RASA1 / Fold change vs veh, RASA1 / RFU, RB1 / Fold change vs veh, RB1 / RFU, PPFIA1 / Fold change vs veh, PPFIA1 / RFU, MAT2A / Fold change vs veh, MAT2A / RFU, CCT5 / Fold change vs veh, CCT5 / RFU, WDR92 / Fold change vs veh, WDR92 / RFU, CUX1 / Fold change vs veh, CUX1 / RFU, TTC7A / Fold change vs veh, TTC7A / RFU, TMEM135 / Fold change vs veh, TMEM135 / RFU, DEPTOR / Fold change vs veh, DEPTOR / RFU, CPM / Fold change vs veh, CPM / RFU, DNAJB6 / Fold change vs veh, DNAJB6 / RFU, CACNA2D3 / Fold change vs veh, CACNA2D3 / RFU, DTX4 / Fold change vs veh, DTX4 / RFU, TFCP2 / Fold change vs veh, TFCP2 / RFU, GMCL1 /// GMCL1P1 / Fold change vs veh, GMCL1 /// GMCL1P1 / RFU, AEBP2 / Fold change vs veh, AEBP2 / RFU, SNHG1 /// SNORD22 /// SNORD25 /// SNORD26 /// SNORD27 /// SNORD28 /// SNORD29 /// SNORD31 / Fold change vs veh, SNHG1 /// SNORD22 /// SNORD25 /// SNORD26 /// SNORD27 /// SNORD28 /// SNORD29 /// SNORD31 / Fold change (Aza/veh), C12orf56 (ProbeSet 11735607_a_at) / Fold change (ACY-1035/veh), C12orf56 (ProbeSet 11735607_a_at) / Fold change (Aza/veh), FGFR1OP (ProbeSet 11751329_s_at) / Fold change (ACY-1035/veh), FGFR1OP (ProbeSet 11751329_s_at) / Fold change (Aza/veh), VPS36 (ProbeSet 11739960_a_at) / Fold change (ACY-1035/veh), VPS36 (ProbeSet 11739960_a_at) / RFU SYPL1 (11715823_x_at) / Fold change /veh SYPL1 (11715823_x_at) / RFU IGFBP7 (11715501_s_at) / Fold change /veh IGFBP7 (11715501_s_at) / RFU REEP3 (11722064_at) / Fold change /veh REEP3 (11722064_at) / RFU IGLL1 (11728026_x_at) / Fold change /veh IGLL1 (11728026_x_at): dose or concentration left out as unconfirmed
# Details: MV-4-11 cells, 48 hours
compound,measurement,value
Nc1ncn([C@@H]2O[C@H](CO)[C@@H](O)[C@H]2O)c(=O)n1 [azacitidine],Fold change /veh OR2T12 /// OR2T33 /// OR2T8 (11738714_s_at),1.07
